The values that follow come from publication PMC4993559 (Journal of Experimental Pharmacology, 2016).

For one data set, the target named is JAK1 (Homo sapiens, UniProt P23458). As to the kind of experiment: HotSpot radioisotope filter-binding kinase assay. It counts as biochemical.
Data set [1] deals with T1, CSF1R (c-fms) (Homo sapiens, UniProt P07333). As to the kind of experiment: HotSpot radioisotope filter-binding kinase assay. It counts as biochemical.
The test system of a further data set is phosphorylated IRAK1. The note with it: AML cells; cited from earlier work.
In data set [2] the target is T2, HIPK4 (Homo sapiens, UniProt Q8NE63).
T2 sequence (Q8NE63 1-616): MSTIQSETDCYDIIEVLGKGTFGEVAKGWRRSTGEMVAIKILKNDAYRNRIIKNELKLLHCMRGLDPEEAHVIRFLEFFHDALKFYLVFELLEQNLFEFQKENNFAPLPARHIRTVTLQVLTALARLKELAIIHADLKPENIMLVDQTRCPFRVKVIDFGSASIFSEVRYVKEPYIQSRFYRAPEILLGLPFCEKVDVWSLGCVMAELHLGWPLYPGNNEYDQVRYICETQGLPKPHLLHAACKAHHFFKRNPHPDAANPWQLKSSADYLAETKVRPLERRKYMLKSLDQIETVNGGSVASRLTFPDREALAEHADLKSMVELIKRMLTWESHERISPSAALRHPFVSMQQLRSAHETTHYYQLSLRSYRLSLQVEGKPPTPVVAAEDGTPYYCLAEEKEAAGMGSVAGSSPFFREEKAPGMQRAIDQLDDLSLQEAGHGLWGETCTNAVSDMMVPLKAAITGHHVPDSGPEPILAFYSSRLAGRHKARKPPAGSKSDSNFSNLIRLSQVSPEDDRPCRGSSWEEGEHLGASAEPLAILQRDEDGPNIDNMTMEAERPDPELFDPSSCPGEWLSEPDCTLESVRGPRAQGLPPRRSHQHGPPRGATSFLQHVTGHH
As to the kind of experiment: HotSpot radioisotope filter-binding kinase assay. It counts as biochemical.

For the next data set, the system named is AML cell lines. The note with it: AML cell lines harboring various mutations; cited from earlier work.
For data set [3], the target named is T3, ROS1 (Homo sapiens, UniProt P08922). As to the kind of experiment: HotSpot radioisotope filter-binding kinase assay. It counts as biochemical.
T3 sequence (P08922 28-2347): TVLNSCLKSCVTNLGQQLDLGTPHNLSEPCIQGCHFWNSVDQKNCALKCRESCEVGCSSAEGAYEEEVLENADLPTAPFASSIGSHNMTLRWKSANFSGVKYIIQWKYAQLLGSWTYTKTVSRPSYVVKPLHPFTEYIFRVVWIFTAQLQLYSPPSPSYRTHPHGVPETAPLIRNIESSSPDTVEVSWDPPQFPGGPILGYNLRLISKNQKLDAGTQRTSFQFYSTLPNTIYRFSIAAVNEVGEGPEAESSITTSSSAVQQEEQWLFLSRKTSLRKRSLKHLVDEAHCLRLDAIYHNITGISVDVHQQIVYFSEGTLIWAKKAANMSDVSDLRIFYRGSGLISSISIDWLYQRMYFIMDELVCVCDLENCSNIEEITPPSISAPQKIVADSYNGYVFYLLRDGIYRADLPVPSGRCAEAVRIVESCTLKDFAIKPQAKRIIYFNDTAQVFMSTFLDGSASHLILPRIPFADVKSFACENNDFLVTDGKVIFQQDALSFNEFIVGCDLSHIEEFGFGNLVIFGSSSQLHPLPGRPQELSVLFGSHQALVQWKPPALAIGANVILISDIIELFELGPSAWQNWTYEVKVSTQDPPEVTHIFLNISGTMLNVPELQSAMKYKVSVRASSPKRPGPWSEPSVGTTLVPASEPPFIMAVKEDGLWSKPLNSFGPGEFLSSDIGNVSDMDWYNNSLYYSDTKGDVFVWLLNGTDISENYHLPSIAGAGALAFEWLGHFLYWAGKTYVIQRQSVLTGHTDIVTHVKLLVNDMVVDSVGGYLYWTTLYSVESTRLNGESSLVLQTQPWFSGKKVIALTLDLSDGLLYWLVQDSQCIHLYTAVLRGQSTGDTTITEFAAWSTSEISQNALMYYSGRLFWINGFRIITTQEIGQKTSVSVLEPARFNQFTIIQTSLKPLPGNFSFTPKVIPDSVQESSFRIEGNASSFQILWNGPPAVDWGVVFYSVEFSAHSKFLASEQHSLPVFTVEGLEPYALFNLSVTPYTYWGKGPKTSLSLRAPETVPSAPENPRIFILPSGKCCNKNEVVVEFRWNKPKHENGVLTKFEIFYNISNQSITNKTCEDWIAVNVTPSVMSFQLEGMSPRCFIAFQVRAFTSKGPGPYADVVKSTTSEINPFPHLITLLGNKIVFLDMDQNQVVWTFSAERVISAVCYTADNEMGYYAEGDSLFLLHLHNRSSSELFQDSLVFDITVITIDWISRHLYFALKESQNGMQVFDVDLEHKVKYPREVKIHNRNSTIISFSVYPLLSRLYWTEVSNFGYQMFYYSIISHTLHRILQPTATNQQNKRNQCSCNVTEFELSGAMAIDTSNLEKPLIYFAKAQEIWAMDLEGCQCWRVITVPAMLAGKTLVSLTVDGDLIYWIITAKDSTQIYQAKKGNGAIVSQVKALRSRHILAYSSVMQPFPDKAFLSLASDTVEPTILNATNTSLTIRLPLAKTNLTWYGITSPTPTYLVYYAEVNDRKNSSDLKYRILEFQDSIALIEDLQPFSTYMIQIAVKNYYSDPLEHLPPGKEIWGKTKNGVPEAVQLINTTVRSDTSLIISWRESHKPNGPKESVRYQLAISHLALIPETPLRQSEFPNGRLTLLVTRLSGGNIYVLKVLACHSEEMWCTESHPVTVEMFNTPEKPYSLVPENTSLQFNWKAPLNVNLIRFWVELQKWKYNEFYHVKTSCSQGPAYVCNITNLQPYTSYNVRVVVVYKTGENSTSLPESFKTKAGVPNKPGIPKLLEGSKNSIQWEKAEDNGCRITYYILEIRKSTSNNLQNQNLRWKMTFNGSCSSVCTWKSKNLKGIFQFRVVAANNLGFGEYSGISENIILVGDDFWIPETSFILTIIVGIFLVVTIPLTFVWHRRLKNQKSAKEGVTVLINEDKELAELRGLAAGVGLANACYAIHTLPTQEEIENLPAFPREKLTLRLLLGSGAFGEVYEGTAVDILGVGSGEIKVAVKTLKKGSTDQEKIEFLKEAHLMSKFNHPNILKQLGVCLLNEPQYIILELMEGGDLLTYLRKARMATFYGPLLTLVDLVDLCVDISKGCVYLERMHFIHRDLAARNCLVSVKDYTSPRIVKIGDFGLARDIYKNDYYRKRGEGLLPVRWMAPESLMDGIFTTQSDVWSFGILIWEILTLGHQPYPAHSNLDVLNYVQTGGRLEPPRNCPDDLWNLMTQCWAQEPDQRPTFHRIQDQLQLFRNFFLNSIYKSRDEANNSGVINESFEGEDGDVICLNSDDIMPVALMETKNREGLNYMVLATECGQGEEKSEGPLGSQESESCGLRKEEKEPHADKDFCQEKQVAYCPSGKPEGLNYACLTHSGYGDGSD
Data set [4] deals with T4, c-src (Homo sapiens, UniProt P12931). As to the kind of experiment: HotSpot radioisotope filter-binding kinase assay. The format is biochemical.
T4 sequence (P12931 whole entry): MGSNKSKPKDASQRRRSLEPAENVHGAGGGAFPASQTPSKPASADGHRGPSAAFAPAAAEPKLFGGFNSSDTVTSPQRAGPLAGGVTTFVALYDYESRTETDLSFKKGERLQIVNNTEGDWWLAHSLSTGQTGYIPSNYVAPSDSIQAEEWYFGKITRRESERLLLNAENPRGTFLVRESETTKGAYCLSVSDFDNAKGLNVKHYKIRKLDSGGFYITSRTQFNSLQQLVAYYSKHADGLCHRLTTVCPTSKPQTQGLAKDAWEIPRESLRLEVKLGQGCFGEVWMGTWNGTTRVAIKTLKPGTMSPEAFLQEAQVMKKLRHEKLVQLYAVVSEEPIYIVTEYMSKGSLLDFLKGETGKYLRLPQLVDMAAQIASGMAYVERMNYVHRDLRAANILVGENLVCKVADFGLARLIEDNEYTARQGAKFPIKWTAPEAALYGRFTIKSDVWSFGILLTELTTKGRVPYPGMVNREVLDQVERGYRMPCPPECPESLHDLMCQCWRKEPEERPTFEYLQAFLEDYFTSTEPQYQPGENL
The target in the next data set is IRAK1 (Homo sapiens, UniProt P51617). As to the kind of experiment: HotSpot radioisotope filter-binding kinase assay. It counts as biochemical.
A further data set addresses T5, TNK1 (Homo sapiens, UniProt Q13470).
T5 sequence (Q13470 1-666): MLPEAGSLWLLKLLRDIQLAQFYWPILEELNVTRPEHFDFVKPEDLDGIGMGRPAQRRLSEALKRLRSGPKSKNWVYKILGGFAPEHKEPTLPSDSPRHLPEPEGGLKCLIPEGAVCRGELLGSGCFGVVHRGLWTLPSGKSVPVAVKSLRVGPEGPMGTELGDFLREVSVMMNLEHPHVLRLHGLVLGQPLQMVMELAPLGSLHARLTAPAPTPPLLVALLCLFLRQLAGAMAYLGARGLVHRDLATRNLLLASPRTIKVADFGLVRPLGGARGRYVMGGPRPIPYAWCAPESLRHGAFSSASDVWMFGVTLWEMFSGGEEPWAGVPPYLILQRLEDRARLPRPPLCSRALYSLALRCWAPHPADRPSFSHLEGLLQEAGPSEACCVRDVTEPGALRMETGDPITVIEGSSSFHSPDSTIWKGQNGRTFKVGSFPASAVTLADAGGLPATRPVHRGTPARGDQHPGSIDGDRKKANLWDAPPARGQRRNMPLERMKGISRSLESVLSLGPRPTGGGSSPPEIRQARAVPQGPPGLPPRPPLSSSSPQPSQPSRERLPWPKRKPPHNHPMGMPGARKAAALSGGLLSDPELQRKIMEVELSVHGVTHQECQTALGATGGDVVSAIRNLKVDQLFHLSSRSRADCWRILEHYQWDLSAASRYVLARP
As to the kind of experiment: HotSpot radioisotope filter-binding kinase assay. The format is biochemical.

Data set [5] in a line: Steady-state peak plasma concentration after 400 mg daily. The format is in vivo. Particulars: humans, calculated/simulated.
The next data set deals with primary CMML cells. Particulars: cited from earlier work.
For the next data set, the target named is TYK2 (Homo sapiens, UniProt P29597). Kind of data set: HotSpot radioisotope filter-binding kinase assay. The format is biochemical.
Another data set concerns the target TRKC (Homo sapiens, UniProt Q16288). Kind of data set: HotSpot radioisotope filter-binding kinase assay. The format is biochemical.
The target of another data set is c-kit (Homo sapiens, UniProt P10721). As to the kind of experiment: HotSpot radioisotope filter-binding kinase assay. It counts as biochemical.
The target in data set [6] is T2, HIPK4. Particulars: read-out: IC50 (class); Momelotinib scale; cited from earlier work.
In data set [7] the target is T3, ROS1. The note with it: read-out: IC50 (class); Momelotinib scale; cited from earlier work.
Data set [8] concerns the target T4, c-src. The note with it: read-out: IC50 (class); Momelotinib scale; cited from earlier work.
Data set [9] addresses T1, CSF1R (c-fms). Particulars: read-out: IC50 (class); Momelotinib scale; cited from earlier work.
The mark [10] stands for this setting: IC50, recombinant kinase, 10 μM ATP.

Where two headings read alike, the source gives them in different places.

As a reminder, the IC50 is the concentration that inhibits the measured activity by half. Usually remaining activity stands for what remains of the control signal, in per cent.

T1 sequence (P07333 20-972): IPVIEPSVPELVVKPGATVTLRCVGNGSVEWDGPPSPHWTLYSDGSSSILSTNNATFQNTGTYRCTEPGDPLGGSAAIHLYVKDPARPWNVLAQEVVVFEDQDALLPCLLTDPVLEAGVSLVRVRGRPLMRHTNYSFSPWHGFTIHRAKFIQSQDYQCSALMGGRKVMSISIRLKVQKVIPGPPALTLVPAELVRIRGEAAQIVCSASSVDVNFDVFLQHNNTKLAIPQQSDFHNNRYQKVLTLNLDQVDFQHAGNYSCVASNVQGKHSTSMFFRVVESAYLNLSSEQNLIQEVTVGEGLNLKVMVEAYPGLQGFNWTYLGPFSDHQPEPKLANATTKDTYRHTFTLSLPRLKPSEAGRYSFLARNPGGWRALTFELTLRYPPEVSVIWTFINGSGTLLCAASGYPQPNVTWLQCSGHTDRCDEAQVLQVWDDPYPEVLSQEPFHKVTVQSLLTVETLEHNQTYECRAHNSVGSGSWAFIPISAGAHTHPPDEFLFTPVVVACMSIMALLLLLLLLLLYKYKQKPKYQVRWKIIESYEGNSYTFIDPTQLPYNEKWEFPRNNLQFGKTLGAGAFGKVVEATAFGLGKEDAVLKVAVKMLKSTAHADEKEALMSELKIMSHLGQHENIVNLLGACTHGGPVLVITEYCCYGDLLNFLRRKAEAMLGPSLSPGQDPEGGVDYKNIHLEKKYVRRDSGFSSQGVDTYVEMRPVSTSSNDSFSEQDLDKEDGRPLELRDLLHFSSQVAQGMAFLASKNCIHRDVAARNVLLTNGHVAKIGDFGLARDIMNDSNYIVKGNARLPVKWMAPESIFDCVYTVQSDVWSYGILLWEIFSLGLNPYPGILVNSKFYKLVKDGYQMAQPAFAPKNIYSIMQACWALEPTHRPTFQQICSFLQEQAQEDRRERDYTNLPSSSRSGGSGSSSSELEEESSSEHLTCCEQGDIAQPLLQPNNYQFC
Sequence of JAK1 (P23458 whole entry): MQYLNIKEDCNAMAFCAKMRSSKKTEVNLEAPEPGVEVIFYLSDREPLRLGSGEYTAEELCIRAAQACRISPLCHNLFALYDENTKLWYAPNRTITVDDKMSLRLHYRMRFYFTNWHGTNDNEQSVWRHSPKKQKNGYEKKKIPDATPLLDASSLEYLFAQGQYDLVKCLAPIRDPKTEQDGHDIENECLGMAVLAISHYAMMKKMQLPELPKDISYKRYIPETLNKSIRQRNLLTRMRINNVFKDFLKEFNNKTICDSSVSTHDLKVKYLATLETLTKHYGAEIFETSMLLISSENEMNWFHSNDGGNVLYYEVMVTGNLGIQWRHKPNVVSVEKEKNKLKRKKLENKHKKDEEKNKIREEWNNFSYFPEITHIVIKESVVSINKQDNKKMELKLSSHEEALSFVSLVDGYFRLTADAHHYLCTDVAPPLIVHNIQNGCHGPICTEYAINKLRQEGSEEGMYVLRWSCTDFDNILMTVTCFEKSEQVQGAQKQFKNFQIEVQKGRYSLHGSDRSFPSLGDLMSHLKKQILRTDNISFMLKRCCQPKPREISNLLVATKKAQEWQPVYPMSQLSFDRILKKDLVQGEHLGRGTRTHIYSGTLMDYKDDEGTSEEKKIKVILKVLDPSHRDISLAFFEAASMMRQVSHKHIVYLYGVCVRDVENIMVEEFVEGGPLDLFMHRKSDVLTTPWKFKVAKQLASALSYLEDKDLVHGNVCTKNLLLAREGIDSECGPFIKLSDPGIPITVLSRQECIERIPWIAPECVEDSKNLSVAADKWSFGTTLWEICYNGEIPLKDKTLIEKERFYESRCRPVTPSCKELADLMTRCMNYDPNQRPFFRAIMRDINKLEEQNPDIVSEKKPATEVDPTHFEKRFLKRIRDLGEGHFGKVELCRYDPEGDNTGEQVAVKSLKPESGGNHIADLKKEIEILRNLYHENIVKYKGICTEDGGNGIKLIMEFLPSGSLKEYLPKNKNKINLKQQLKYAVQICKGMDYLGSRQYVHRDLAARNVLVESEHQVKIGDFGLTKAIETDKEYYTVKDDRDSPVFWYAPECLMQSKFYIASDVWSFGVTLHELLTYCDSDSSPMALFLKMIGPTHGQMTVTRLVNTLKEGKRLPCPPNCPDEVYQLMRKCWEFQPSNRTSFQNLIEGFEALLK

In the case of `C1=C/COCc2cc(ccc2OCCN2CCCC2)Nc2nccc(n2)-c2cccc(c2)COC/1` [Pacritinib, 11-(2-pyrrolidin-1-yl-ethoxy)-14,19-dioxa-5,7,26-triaza-tetracyclo[19.3.1.1(2,6). 1(8,12)]heptacosa-1(25),2(26),3,5,8,10,12(27),16,21,23-decaene], the IC50 on JAK1 is > 100 nM; on JAK1 (recombinant kinase, 10 μM ATP), “Indeterminate”; on CSF1R (c-fms) [1] (IC50 (class), Pacritinib scale), 25 to 50 nM; at CSF1R (c-fms) [1] (setting [10]), < 50 nM; on HIPK4 [2] (IC50 (class), Pacritinib scale), < 25 nM; on HIPK4 [2] (setting [10]), 14.5 nM. The IC50 on ROS1 [3] (IC50 (class), Pacritinib scale) is < 25 nM; on ROS1 [3] (setting [10]), 18.4 nM; at c-src [4] (IC50 (class), Pacritinib scale), 25 to 50 nM; on c-src [4] (setting [10]) it was 46.7 nM; on IRAK1 (IC50 (class), Pacritinib scale), < 25 nM; at IRAK1 (setting [10]), 13.6 nM. The 50% inhibitory concentration (IC50) on TNK1 (IC50 (class), Pacritinib scale) was < 25 nM; at TNK1 (setting [10]), 15 nM; on TYK2 (IC50 (class), Pacritinib scale), 25 to 50 nM; at TYK2 (setting [10]) it was 27 nM; at TRKC (IC50 (class), Pacritinib scale), < 25 nM; at TRKC (setting [10]), 18.4 nM. Also, the IC50 on c-kit (IC50 (class), Pacritinib scale) is 25 to 50 nM; on c-kit (setting [10]), 43.8 nM. Further, the remaining activity at 0.1 µM at JAK1 (read-out: kinase activity remaining (% control)) was 82%. Besides, the “phosphorylation of IRAK1” value in the data set with phosphorylated IRAK1 was “inhibits the phosphorylation of IRAK1”. The viability and survival entry in the data set with AML cell lines is “reduces both the viability and survival”. In addition, the total steady-state levels in data set [5] is 5 to 7 µM. The “mean peak plasma concentration of free drug at steady state” value in data set [5] (oral) was “approximately 200 nM”. In addition, the “activity combined with 5-azacitidine” value with primary CMML cells is listed as “synergistic activity”.
Turning to `N#CCNC(=O)c1ccc(-c2ccnc(Nc3ccc(N4CCOCC4)cc3)n2)cc1` [Momelotinib], the IC50 was < 1000 nM at HIPK4 [6], < 1000 nM on ROS1 [7], > 1000 nM at c-src [8] and < 1000 nM at CSF1R (c-fms) [9].
